Key:
[1] = molecular target: T1, α1G T-type calcium channel (Homo sapiens, UniProt O43497); assay: Assay for % inhibiting activity against T-type calcium channel using FDSS6000 (fluo-3 calcium imaging, KCl activation); format: cell-based; details: HEK293, 10 μM; HEK293 cells stably expressing α1G T-type calcium channel and Kir2.1; compounds of the examples; read-out: FDSS (% inhibition)/10uM
T1 construct: host or cells: HEK293
Summary of the method: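 Percent inhibition derived from […] area against untreated control (100%), after 75 s compound pre-exposure and 75 mM KCl activation. Cells: HEK293 with stable α1G plus Kir2.1, fluo-3/AM-labelled (5 μM), assayed in pH 7.4 HEPES containing 10 mM CaCl2.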

T1 sequence (O43497 whole entry): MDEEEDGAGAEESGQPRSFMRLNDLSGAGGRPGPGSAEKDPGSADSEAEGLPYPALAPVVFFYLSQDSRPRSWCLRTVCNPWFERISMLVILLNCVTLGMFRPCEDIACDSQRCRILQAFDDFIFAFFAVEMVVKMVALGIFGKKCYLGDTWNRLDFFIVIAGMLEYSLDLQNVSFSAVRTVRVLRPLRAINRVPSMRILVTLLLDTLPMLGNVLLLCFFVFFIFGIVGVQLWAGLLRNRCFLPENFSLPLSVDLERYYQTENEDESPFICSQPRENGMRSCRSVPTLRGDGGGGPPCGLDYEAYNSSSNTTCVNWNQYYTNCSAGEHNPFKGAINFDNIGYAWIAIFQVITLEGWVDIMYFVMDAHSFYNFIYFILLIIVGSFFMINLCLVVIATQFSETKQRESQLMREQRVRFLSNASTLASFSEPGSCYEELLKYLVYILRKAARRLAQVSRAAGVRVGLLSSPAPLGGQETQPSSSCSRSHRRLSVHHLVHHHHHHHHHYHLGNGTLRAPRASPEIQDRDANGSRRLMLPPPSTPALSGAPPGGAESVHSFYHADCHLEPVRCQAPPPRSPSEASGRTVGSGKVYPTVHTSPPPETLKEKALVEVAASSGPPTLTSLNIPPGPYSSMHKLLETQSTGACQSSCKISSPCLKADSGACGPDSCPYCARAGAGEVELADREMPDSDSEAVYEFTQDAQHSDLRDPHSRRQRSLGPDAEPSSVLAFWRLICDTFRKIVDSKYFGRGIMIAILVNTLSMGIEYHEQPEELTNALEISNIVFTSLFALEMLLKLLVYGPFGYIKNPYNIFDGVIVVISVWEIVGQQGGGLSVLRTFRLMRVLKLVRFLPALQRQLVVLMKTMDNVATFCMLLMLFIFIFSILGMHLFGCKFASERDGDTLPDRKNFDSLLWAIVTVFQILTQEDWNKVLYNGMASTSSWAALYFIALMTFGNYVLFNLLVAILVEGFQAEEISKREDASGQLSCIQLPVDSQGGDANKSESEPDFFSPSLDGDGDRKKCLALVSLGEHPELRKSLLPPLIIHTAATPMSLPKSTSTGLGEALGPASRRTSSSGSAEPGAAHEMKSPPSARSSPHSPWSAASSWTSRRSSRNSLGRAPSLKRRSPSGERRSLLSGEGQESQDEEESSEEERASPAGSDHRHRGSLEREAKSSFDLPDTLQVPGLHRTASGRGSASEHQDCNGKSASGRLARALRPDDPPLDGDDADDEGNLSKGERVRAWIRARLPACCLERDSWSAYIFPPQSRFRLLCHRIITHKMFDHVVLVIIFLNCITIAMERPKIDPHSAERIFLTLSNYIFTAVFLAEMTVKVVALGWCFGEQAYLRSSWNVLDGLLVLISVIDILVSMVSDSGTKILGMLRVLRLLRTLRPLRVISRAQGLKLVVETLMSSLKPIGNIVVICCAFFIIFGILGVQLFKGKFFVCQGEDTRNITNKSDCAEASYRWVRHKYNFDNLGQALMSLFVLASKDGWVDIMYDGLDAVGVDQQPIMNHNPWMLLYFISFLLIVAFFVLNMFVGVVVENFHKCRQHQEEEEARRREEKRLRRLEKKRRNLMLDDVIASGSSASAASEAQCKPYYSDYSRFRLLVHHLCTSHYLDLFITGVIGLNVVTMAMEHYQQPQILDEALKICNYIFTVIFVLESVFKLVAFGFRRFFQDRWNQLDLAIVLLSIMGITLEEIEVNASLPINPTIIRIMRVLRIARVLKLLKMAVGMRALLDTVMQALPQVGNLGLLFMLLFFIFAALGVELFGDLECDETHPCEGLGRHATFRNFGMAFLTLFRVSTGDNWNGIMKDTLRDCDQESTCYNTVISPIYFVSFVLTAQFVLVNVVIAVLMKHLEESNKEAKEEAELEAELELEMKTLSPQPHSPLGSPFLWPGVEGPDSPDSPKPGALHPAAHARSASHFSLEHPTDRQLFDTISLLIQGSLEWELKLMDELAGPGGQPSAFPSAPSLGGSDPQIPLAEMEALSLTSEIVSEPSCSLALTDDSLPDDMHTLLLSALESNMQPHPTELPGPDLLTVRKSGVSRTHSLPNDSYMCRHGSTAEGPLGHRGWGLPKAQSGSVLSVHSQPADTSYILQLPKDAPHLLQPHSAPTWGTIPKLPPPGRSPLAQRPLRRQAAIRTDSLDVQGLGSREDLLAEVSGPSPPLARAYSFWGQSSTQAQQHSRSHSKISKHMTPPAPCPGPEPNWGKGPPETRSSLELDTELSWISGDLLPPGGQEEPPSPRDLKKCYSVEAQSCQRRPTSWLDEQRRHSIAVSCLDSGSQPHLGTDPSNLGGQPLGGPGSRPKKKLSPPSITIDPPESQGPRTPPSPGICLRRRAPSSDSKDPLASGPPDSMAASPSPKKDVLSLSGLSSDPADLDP

Row | Compound | inhibition at 10 µM [1] | melting point
1 | Cl.O=C(CC1CSC(=NC23CC4CC(CC(C4)C2)C3)N1C1CC1)Nc1cc(C(F)(F)F)cc(C(F)(F)F)c1 (stereo not shown) [KHG24792, [2-(1-adamantylimino)-3-cyclopropyl-1,3-thiazolidine-4-yl]-N-(3,5-ditrifluoromethylphenyl)-acetamide hydrochloride] | 67% | 258 °C
2 | CCCCc1ccc(NC(=O)CC2CSC(=NC3CCCCC3)N2Cc2ccccc2)cc1.Cl (stereo not shown) [KHG24406, (2-cyclohexylimino-3-benzyl-1,3-thiazolidine-4-yl)-N-(4-n-butylphenyl)-acetamide hydrochloride] | 34.4% | 156.2 °C
3 | Cc1ccc(NC(=O)CC2CSC(=NC34CC5CC(CC(C5)C3)C4)N2C(C)C)cc1Cl.Cl (stereo not shown) [KHG24836, [2-(1-adamantylimino)-3-isopropyl-1,3-thiazolidine-4-yl]-N-(5-chloro-4-methylphenyl)-acetamide hydrochloride] | 48.9% | 231 °C
4 | CC(C)N1C(=NC23CC4CC(CC(C4)C2)C3)SCC1CC(=O)Nc1cc([N+](=O)[O-])ccc1F.Cl (stereo not shown) [KHG24840, [2-(1-adamantylimino)-3-isopropyl-1,3-thiazolidine-4-yl]-N-(2-fluoro-5-nitrophenyl)-acetamide hydrochloride] | 49.4% | 131 °C
5 | CCc1ccc(NC(=O)CC2C(C)SC(=NC3CCCCC3)N2C)cc1.Cl (stereo not shown) [KHG24523, (2-cyclohexylimino-3,5-dimethyl-1,3-thiazolidine-4-yl)-N-(4-ethylphenyl)-acetamide hydrochloride] | 46.3% | 265 to 266 °C
6 | CCCN1C(=NC2CCCCC2)SCC1CC(=O)Nc1ccc(Oc2ccccc2)cc1.Cl (stereo not shown) [KHG24290, [2-cyclohexylimino-3-(n-propyl)-1,3-thiazolidine-4-yl]-N-(4-phenoxyphenyl)-acetamide hydrochloride] | 62.2% | 230.3 °C
7 | CCCCN1C(=NC23CC4CC(CC(C4)C2)C3)SCC1CC(=O)Nc1cc(Cl)ccc1F.Cl (stereo not shown) [KHG24785, [2-(1-adamantylimino)-3-(n-butyl)-1,3-thiazolidine-4-yl]-N-(5-chloro-2-fluorophenyl)-acetamide hydrochloride] | 47.1% | 156 °C
8 | CC1SC(=NC2CCCCCC2)N(C)C1CC(=O)Nc1ccc([N+](=O)[O-])cc1.Cl (stereo not shown) [KHG24642, (2-cycloheptylimino-3,5-dimethyl-1,3-thiazolidine-4-yl)-N-(4-nitrophenyl)-acetamide hydrochloride] | 66.7% | 255 to 258 °C
9 | Cl.O=C(CC1CSC(=NC2CCCCC2)N1C1CCCCC1)NCc1ccccc1C(F)(F)F (stereo not shown) [KHG24547, (2-cyclohexylimino-3-cyclohexyl-1,3-thiazolidine-4-yl)-N-(2-trifluoromethylbenzyl)-acetamide hydrochloride] | 51.1% | 180 °C
10 | CC(C)N1C(=NC23CC4CC(CC(C4)C2)C3)SCC1CC(=O)Nc1ccc(Cl)cc1.Cl (stereo not shown) [KHG24823, [2-(1-adamantylimino)-3-isopropyl-1,3-thiazolidine-4-yl]-N-(4-chlorophenyl)-acetamide hydrochloride] | 54.1% | 236 °C
11 | CC1SC(=NC2CCCCC2)N(C)C1CC(=O)Nc1ccc(Br)cc1 (stereo not shown) [KHG24482, (2-cyclohexylimino-3,5-dimethyl-1,3-thiazolidine-4-yl)-N-(4-bromophenyl)-acetamide] | 52.4% | 260 to 262 °C

Further lines, results first:

Row | inhibition at 10 µM [1] | melting point | Compound
12 | 58.9% | 214.1 °C | Cl.O=C(CC1CSC(=NC2CCCCC2)N1Cc1ccccc1)Nc1ccc(F)cc1 (stereo not shown) [KHG24305, (2-cyclohexylimino-3-benzyl-1,3-thiazolidine-4-yl)-N-(4-fluorophenyl)-acetamide hydrochloride]
13 | 70.8% | 218 to 219 °C | CN1C(=NC2CCCCCC2)SCC1C(=O)NCc1ccc(Cl)c(Cl)c1.Cl (stereo not shown) [KHG24338, (2-cycloheptylimino-3-methyl-1,3-thiazolidine-4-yl)-N-(3,4-dichlorobenzyl)-carboxamide hydrochloride]
14 | 65.7% | 207 °C | CCCN1C(=NC2CCCCC2)SCC1CC(=O)Nc1ccc(C(C)C)cc1.Cl (stereo not shown) [KHG24294, [2-cyclohexylimino-3-(n-propyl)-1,3-thiazolidine-4-yl]-N-(4-isopropylphenyl)-acetamide hydrochloride]
15 | 57.3% | 234 to 235.5 °C | CN1C(=NC2CCCCC2)SCC1CC(=O)Nc1ccc(C(C)(C)C)cc1.Cl (stereo not shown) [KHG24073, (2-cyclohexylimino-3-methyl-1,3-thiazolidine-4-yl)-N-(4-t-butylphenyl)-acetamide hydrochloride]
16 | 52.6% | 241 to 242 °C | CCOC(=O)CCOc1cccc(NC(=O)CC2CSC(=NC3CCCCC3)N2C)c1.Cl (stereo not shown) [KHG24085, (2-cyclohexylimino-3-methyl-1,3-thiazolidine-4-yl)-N-(3-ethoxycarbonylethoxyphenyl)-acetamide hydrochloride]
17 | 33% | 177.1 °C | CN1C(=NCC2CCCCC2)SCC1CC(=O)Nc1ccc(Cl)cc1.Cl (stereo not shown) [KHG24230, (2-cyclohexylmethylimino-3-methyl-1,3-thiazolidine-4-yl)-N-(4-chlorophenyl)-acetamide hydrochloride]
18 | 36.7% | 181.4 °C | Cl.O=C(CC1CSC(=NC2CCCCC2)N1Cc1ccccc1)Nc1ccc(Br)cc1 (stereo not shown) [KHG24300, (2-cyclohexylimino-3-benzyl-1,3-thiazolidine-4-yl)-N-(4-bromophenyl)-acetamide hydrochloride]
19 | 48.5% | 188.9 °C | Cl.O=C(CC1CSC(=NC2CCCCC2)N1C1CC1)Nc1ccc(Br)cc1 (stereo not shown) [KHG24273, [2-cyclohexylimino-3-cyclopropyl-1,3-thiazolidine-4-yl]-N-(4-bromophenyl)-acetamide hydrochloride]
20 | 49.9% | 213 to 215.5 °C | CC(C)c1ccc(NC(=O)CC2CSC(=NC3CCCC3)N2C)cc1.Cl (stereo not shown) [KHG24115, (2-cyclopentylimino-3-methyl-1,3-thiazolidine-4-yl)-N-(4-isopropylphenyl)-acetamide hydrochloride]
21 | 32.8% | 249 to 251 °C | CC1SC(=NC2CCCCC2)N(C)C1CC(=O)Nc1cc([N+](=O)[O-])ccc1F (stereo not shown) [KHG24484, (2-cyclohexylimino-3,5-dimethyl-1,3-thiazolidine-4-yl)-N-(2-fluoro-5-nitrophenyl)-acetamide]
22 | 48.9% | 186 °C | CN1C(=NC2CCCCC2)SCC1CC(=O)Nc1cc(Cl)c(Cl)cc1Cl.Cl (stereo not shown) [KHG24533, (2-cyclohexylimino-3-methyl-1,3-thiazolidine-4-yl)-N-(2,4,5-trichlorophenyl)-acetamide hydrochloride]
23 | 53.1% | 169.7 °C | CCCN1C(=NC2CCCCC2)SCC1CC(=O)Nc1ccc(F)cc1.Cl (stereo not shown) [KHG24296, [2-cyclohexylimino-3-(n-propyl)-1,3-thiazolidine-4-yl]-N-(4-fluorophenyl)-acetamide hydrochloride]

Reference: patent US7998989B2, “2-Imino-1,3-thiazoline-based compounds and T-type calcium channel inhibitors containing the same” (Korea Institute of Science and Technology, priority 2007, dated 2011)
